# Experimental data published in PMC4269219 (International journal of andrology, 2010).
# Assays:
# 5α-reductase = conditions: finasteride 2 mg daily; ref Steiner, 1996; cited from earlier work
# [1] = tested on: endogenous testosterone production; conditions: 300 µg/kg subcutaneous, normal healthy men; ref Herbst et al., 2004; cited from earlier work
# [2] = Steady-state pharmacokinetics of oral TU alone or with finasteride; type: in vivo, men; conditions: seventh day of dosing, all treatments (Fig. 2A)
molecule,measurement,setting,value
CC(C)(C)NC(=O)[C@H]1CC[C@H]2[C@@H]3CC[C@H]4NC(=O)C=C[C@]4(C)[C@H]3CC[C@]12C [finasteride],Reduction of circulating levels of DHT,5α-reductase,50%
acyline,Duration of testosterone suppression,[1],2 weeks
same,Time to suppression of testosterone to castrate levels,[1],≤ 24 h
"CCCCCCCCCCC(=O)O[C@H]1CC[C@H]2[C@@H]3CCC4=CC(=O)CC[C@]4(C)[C@H]3CC[C@]12C [TU + placebo, testosterone undecanoate]",Time after dosing at which mean serum testosterone concentrations peaked,[2],4 h
